Measurements from PubChem BioAssay AID298 (DTP/NCI, 2004).
Several values for one entry are separate records, joined by “and”; a condition that tells them apart may be missing. Equal entries are not always repeated. Inconclusive results are not listed. *1 amine or outer side, *2 acyl side, *3 side chain or, on linkers, in order; H or OH if unused. Where a SMILES comes first, the peptide text is derived from it. Bridges are numbered along the chain shown (N, C = ends). Roman numbers before positions name the chains, in order. [ ]: non-standard residue; d: D form. Actinocin(9to1) = Cc1c2oc3c(C)ccc(C(=O)[*:1])c3nc-2c(C(=O)[*:2])c(N)c1=O; aThr = C[C@H](O)[C@H](N)C(=O)O; NMeV = CN[C@H](C(=O)O)C(C)C; Sar = CNCC(=O)O

Test system: MX-1 breast xenograft, intrarenal, nude mice, tumor weight
Assay: NCI In Vivo Anticancer Drug Screen. Data for tumor model Human Mammary Carcinoma MX-1 Xenograft (intrarenal inoculation) in NU/NU BALB/C (nude) mice
Conditions: endpoint: mean tumor weight change, higher = larger tumour
Procedure, shortened: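 Transplantable tumors established in mice; animals dosed with compound or vehicle; survival or tumor size then recorded. Result reported as treated (T) divided by vehicle control (C).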

[1] = dose: 300.0 mg/kg/injection, schedule: Q04DX003 (sc), vehicle: saline with Tween-80
[2] = dose: 300.0 mg/kg/injection, schedule: Q04DX003 (sc), vehicle: Klucel (hydroxypropylcellulose) (HPC)

## O=C1N[C@@H]2C(=C[C@H](O)[C@@H](O)[C@H]2O)c2cc3c(c(O)c21)OCO3
dose: 1.25 mg/kg/injection, schedule: Q04DX003 (sc), vehicle: saline with Tween-80
  T/C: 71 % of control

## Oc1ccc(/C=N/Nc2nnc(N/N=C/c3ccc(O)cc3O)c3ccccc23)c(O)c1
dose: 25.0 mg/kg/injection, schedule: Q04DX003 (ip), vehicle: suspension in saline
  T/C: 50 % of control
dose: 50.0 mg/kg/injection, schedule: Q04DX003 (ip), vehicle: suspension in saline
  T/C: 102 % of control
dose: 100.0 mg/kg/injection, schedule: Q04DX003 (ip), vehicle: suspension in saline
  T/C: 115 % of control

## O=C(O)CC(NC(=O)CP(=O)(O)O)C(=O)O (centres undefined)
dose: 50.0 mg/kg/injection, schedule: Q01DX010 (sc), vehicle: saline
  T/C: 36 % of control
dose: 100.0 mg/kg/injection, schedule: Q01DX010 (sc), vehicle: saline
  T/C: 16 % of control
dose: 200.0 mg/kg/injection, schedule: Q01DX010 (sc), vehicle: saline
  T/C: 5 % of control

## CNC(=O)OCc1nc(SC)n(C)c1COC(=O)NC
dose: 28.75 mg/kg/injection, schedule: Q04DX003 (ip), vehicle: saline
  T/C: -91 % of control
dose: 57.5 mg/kg/injection, schedule: Q04DX003 (ip), vehicle: saline
  T/C: -85 % of control
dose: 115.0 mg/kg/injection, schedule: Q04DX003 (ip), vehicle: saline
  T/C: -63 % of control

## NC(N)=NOCC[C@@H](N)C(=O)O
dose: 300.0 mg/kg/injection, schedule: Q04DX003 (sc), vehicle: saline
  T/C: 87 % of control
dose: 600.0 mg/kg/injection, schedule: Q04DX003 (sc), vehicle: saline
  T/C: 111 % of control
dose: 1200.0 mg/kg/injection, schedule: Q04DX003 (sc), vehicle: saline
  T/C: 86 % of control
dose: 2400.0 mg/kg/injection, schedule: Q04DX003 (sc), vehicle: saline
  T/C: 77 % of control

## CO[C@H]1Nc2c(ccc(C)c2O)C(=O)N2C=C(/C=C/C(N)=O)C[C@@H]12
dose: 0.25 mg/kg/injection, schedule: Q04DX003 (sc), vehicle: saline + alcohol
  T/C: 41 % of control
dose: 0.5 mg/kg/injection, schedule: Q04DX003 (sc), vehicle: saline + alcohol
  T/C: 12 % of control
dose: 1.0 mg/kg/injection, schedule: Q04DX003 (sc), vehicle: saline + alcohol
  T/C: -58 % of control
dose: 2.0 mg/kg/injection, schedule: Q04DX003 (sc), vehicle: saline + alcohol
  T/C: -98 % of control

## Nc1nc2c(ncn2C2OC(CO)C(O)C2O)c(=O)[nH]1 (centres undefined)
[1]
  T/C: 84 % of control
dose: 600.0 mg/kg/injection, schedule: Q04DX003 (sc), vehicle: saline with Tween-80
  T/C: 81 % of control
dose: 1200.0 mg/kg/injection, schedule: Q04DX003 (sc), vehicle: saline with Tween-80
  T/C: 82 % of control
dose: 2400.0 mg/kg/injection, schedule: Q04DX003 (sc), vehicle: saline with Tween-80
  T/C: 88 % of control

## CN(C)c1nc(N(C)C)nc(N(C)C)n1
dose: 12.5 mg/kg/injection, schedule: Q01DX010 (sc), vehicle: saline with Tween-80
  T/C: 102 % of control
dose: 15.0 mg/kg/injection, schedule: Q01DX010 (sc), vehicle: saline with Tween-80
  T/C: 84 % of control
dose: 25.0 mg/kg/injection, schedule: Q01DX010 (ip), vehicle: Klucel (hydroxypropylcellulose) (HPC)
  T/C: 36 % of control
dose: 25.0 mg/kg/injection, schedule: Q01DX010 (sc), vehicle: saline with Tween-80
  T/C: 56 % of control
dose: 30.0 mg/kg/injection, schedule: Q01DX010 (sc), vehicle: saline with Tween-80
  T/C: 3 % of control
dose: 50.0 mg/kg/injection, schedule: Q01DX010 (sc), vehicle: saline with Tween-80
  T/C: 7 % of control
dose: 60.0 mg/kg/injection, schedule: Q01DX010 (sc), vehicle: saline with Tween-80
  T/C: -30 % of control
dose: 75.0 mg/kg/injection, schedule: Q04DX003 (sc), vehicle: saline with Tween-80
  T/C: 37 % of control
dose: 100.0 mg/kg/injection, schedule: Q01DX010 (ip), vehicle: Klucel (hydroxypropylcellulose) (HPC)
  T/C: -100 % of control
dose: 100.0 mg/kg/injection, schedule: Q01DX010 (sc), vehicle: saline with Tween-80
  T/C: 9 % of control
dose: 120.0 mg/kg/injection, schedule: Q01DX010 (sc), vehicle: saline with Tween-80
  T/C: -90 % of control
dose: 150.0 mg/kg/injection, schedule: Q04DX003 (sc), vehicle: saline with Tween-80
  T/C: 16 % of control
dose: 200.0 mg/kg/injection, schedule: Q01DX010 (ip), vehicle: Klucel (hydroxypropylcellulose) (HPC)
  T/C: -100 % of control
dose: 200.0 mg/kg/injection, schedule: Q01DX010 (sc), vehicle: saline with Tween-80
  T/C: -5 % of control
[1]
  T/C: -60 % of control

## O=NN(CCCl)C(=O)NCCO
dose: 3.13 mg/kg/injection, schedule: Q04DX003 (sc), vehicle: water
  T/C: 82 % of control
dose: 6.25 mg/kg/injection, schedule: Q04DX003 (sc), vehicle: water
  T/C: 38 % of control
dose: 12.5 mg/kg/injection, schedule: Q04DX003 (sc), vehicle: water
  T/C: 7 % of control

## Cc1c2oc3c(C)ccc(C(=O)N[C@@H]4C(=O)N[C@H](C(C)C)C(=O)N5CCC[C@H]5C(=O)N(C)CC(=O)N(C)[C@@H](C(C)C)C(=O)O[C@H]4C)c3nc-2c(C(=O)N[C@@H]2C(=O)N[C@H](C(C)C)C(=O)N3CCC[C@H]3C(=O)N(C)CC(=O)N(C)[C@@H](C(C)C)C(=O)O[C@H]2C)c(N)c1=O (I: [aThr][dV]P[Sar][NMeV] / II: [aThr][dV]P[Sar][NMeV]; ester I:1-I:C, II:1-II:C; linker I:N-II:N via Actinocin(9to1))
dose: 25.0 micrograms/kg/injection, schedule: Q01DX010 (sc), vehicle: saline
  T/C: 100 % of control
dose: 50.0 micrograms/kg/injection, schedule: Q01DX010 (sc), vehicle: saline
  T/C: 49 % of control
dose: 100.0 micrograms/kg/injection, schedule: Q01DX010 (sc), vehicle: saline
  T/C: 12 % of control
dose: 200.0 micrograms/kg/injection, schedule: Q01DX010 (sc), vehicle: saline
  T/C: 1 % of control

## CC(C)NC(=O)N(CCCCBr)N=O
dose: 150.0 mg/kg/injection, schedule: Q04DX003 (sc), vehicle: Klucel (hydroxypropylcellulose) (HPC)
  T/C: -61 % of control
[2]
  T/C: -100 % of control

## CC(/C=N/N=C(N)N)=N\N=C(N)N
dose: 25.0 mg/kg/injection, schedule: Q01DX010 (sc), vehicle: water
  T/C: 167 % of control
dose: 50.0 mg/kg/injection, schedule: Q01DX010 (sc), vehicle: water
  T/C: 73 % of control
dose: 100.0 mg/kg/injection, schedule: Q01DX010 (sc), vehicle: water
  T/C: 43 % of control

## O=S(CCCl)CCCl
dose: 25.0 mg/kg/injection, schedule: Q04DX003 (sc), vehicle: Klucel (hydroxypropylcellulose) (HPC)
  T/C: 94 % of control
dose: 50.0 mg/kg/injection, schedule: Q04DX003 (sc), vehicle: Klucel (hydroxypropylcellulose) (HPC)
  T/C: 92 % of control

## Cc1ccc(S(=O)(=O)NC(=O)OC23COCN2COC3)cc1
dose: 200.0 mg/kg/injection, schedule: Q04DX003 (sc), vehicle: saline with Tween-80
  T/C: 123 % of control
dose: 800.0 mg/kg/injection, schedule: Q04DX003 (sc), vehicle: saline with Tween-80
  T/C: 102 % of control
dose: 1600.0 mg/kg/injection, schedule: Q04DX003 (sc), vehicle: saline with Tween-80
  T/C: 107 % of control

## COc1ccc2ccccc2c1C1NC(=O)c2ccccc2N1 (centres undefined)
[2]
  T/C: 79 % of control
dose: 600.0 mg/kg/injection, schedule: Q04DX003 (sc), vehicle: Klucel (hydroxypropylcellulose) (HPC)
  T/C: 104 % of control
dose: 1200.0 mg/kg/injection, schedule: Q04DX003 (sc), vehicle: Klucel (hydroxypropylcellulose) (HPC)
  T/C: 90 % of control
dose: 2400.0 mg/kg/injection, schedule: Q04DX003 (sc), vehicle: Klucel (hydroxypropylcellulose) (HPC)
  T/C: 63 % of control

## COc1cc2c(c(OC)c1OC)-c1ccc(OC)c(=O)cc1[C@@H](NC(C)=O)CC2
dose: 0.5 mg/kg/injection, schedule: Q04DX003 (ip), vehicle: saline
  T/C: 41 % of control and 48 % of control
dose: 1.0 mg/kg/injection, schedule: Q04DX003 (ip), vehicle: saline
  T/C: 17 % of control and 20 % of control

## NC(Cc1ccccc1)C(=O)OCN1C(=O)C2C3C=CC(C2C1=O)C1C2C(=O)N(COC(=O)C(N)Cc4ccccc4)C(=O)C2C31 (centres undefined)
dose: 21.6 mg/kg/injection, schedule: Q01DX009 (ip), vehicle: water
  T/C: 76 % of control
dose: 25.0 mg/kg/injection, schedule: Q04DX003 (ip), vehicle: other
  T/C: 94 % of control
dose: 30.9 mg/kg/injection, schedule: Q01DX009 (ip), vehicle: water
  T/C: 57 % of control
dose: 44.1 mg/kg/injection, schedule: Q01DX009 (ip), vehicle: water
  T/C: 111 % of control
dose: 50.0 mg/kg/injection, schedule: Q04DX003 (ip), vehicle: other
  T/C: 86 % of control
dose: 63.0 mg/kg/injection, schedule: Q01DX009 (ip), vehicle: water
  T/C: 52 % of control
dose: 90.0 mg/kg/injection, schedule: Q01DX009 (ip), vehicle: water
  T/C: 24 % of control
dose: 100.0 mg/kg/injection, schedule: Q04DX003 (ip), vehicle: other
  T/C: 65 % of control
dose: 200.0 mg/kg/injection, schedule: Q04DX003 (ip), vehicle: other
  T/C: 39 % of control
